Data from US12491188B2, “Small molecule PARG inhibitors and methods of use thereof” (Board of Regents, The University of Texas System, priority 2019, dated 2025).

Experiments:
[1] = tested on: PC3, MDA-MB-231 and MCF-7 cell lines; assay: Clonogenic cell-survival assay; format: cell-based, human; details: 10 μM, 2 hours, 3 Gy IR, 2-3 weeks
Description: FIGS. 14a-c show selective inhibition of PARG by xanthine derivative JA2131. (FIG. 14a) PARG knockdown MDA-MB-231 cells were treated with 5 μM JA2131 or PDD for two hours, lysed and total lysates were immunoblotted for anti-PAR (upper panel) followed by anti-PARG (upper middle), anti-PARP1 (lower middle) and anti-actin (bottom). (FIG. 14b) Clonogenic assay radiation dose determination for MDA-MB-231, MCF-7 and PC3 cells. 500 cells were exposed to indicated dose of radiation and colonies were allowed to form for each cell-lines. The surviving colonies from each group were counted and normalized against non-irradiated. The results of three independent experiments are shown here. Error bars=SEM. (FIG. 14c) Clonogenic survival assays of PC3, MDA MB231 and MCF-7 cells treated with PARGi. 500 cells were treated with either DMSO or 10 μM JA2131 for 2 hours, irradiated 3Gy ionizing radiation and grown for approximately 2-3 weeks, then colonies were fixed methanol and stained with crystal violet. Cells were analysed as above. The results of three independent experiments are shown here. Error bars=SEM.
Cell culture. […] Cells were fixed with methanol (100%), stained with crystal violet and analyzed using a GelCount instrument (Oxford Optronix Ltd). […]

PCNA in PC3 cells = PCNA in PC3 cells (Homo sapiens (Human), UniProt P12004); assay: Cellular thermal shift assay (CETSA), PCNA control; format: cell-based; details: 10 μM, 2 h
Sequence of PCNA in PC3 cells (P12004 whole entry): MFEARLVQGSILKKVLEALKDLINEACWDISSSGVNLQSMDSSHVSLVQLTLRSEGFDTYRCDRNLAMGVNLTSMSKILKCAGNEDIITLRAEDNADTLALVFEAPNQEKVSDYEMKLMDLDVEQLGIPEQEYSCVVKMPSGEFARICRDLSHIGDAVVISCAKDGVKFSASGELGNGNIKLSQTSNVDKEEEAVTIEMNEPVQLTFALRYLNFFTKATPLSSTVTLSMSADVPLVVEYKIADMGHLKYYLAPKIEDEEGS
Description: PC3 cells treated with 10 μM JA2131 or DMSO were temperature shocked as described in the Examples and the resulting non-aggregated proteins were analyzed with Anti-PARG or Anti-PCNA antibody. Anti-Histone H3 was used as loading control.
Cellular thermal shift assay (CETSA). CETSA was performed as described in Molina et al., 2013. Briefly, PC3 cells were treated with 10 μM JA2131 or an equivalent volume of DMSO for 2 h, washed three times with PBS and extracted for total cell lysate. 10% glycerol was added to the samples before subjecting to heat. Gradient thermal cycler (C1000 Touch, Bio-Rad) was used to heat samples at 42, 57, 66, 72, 77 and 85° C. for 3 min and chilled on ice for 5 min. Then, samples were centrifuged at 14,000 rpm for 20 min at 4° C. Supernatants were carefully removed and analyzed by Western blotting analysis.

Structure (SMILES): O=C1C(Cl)=C(Cl)C(Cl)(Cl)C(Cl)=C1Cl [JA2131]
- colony formation [1]: inhibits colony formation in all three cell lines
- change in thermal stability of PCNA control (PCNA in PC3 cells): no significant change
